Measurements as given in US20230257396A1, “MACROCYCLES AND THEIR USE” (BLOSSOMHILL THERAPEUTICS, INC., priority 2020, published 2023).

What was measured:
Assay in all cases: KINOMEscan kinase binding assay (Eurofins/DiscoveRx), % Ctrl
kinases [1] = target: T1, kinases (Homo sapiens, UniProt P10721, V559D/V654A)
T1 construct: purchased Eurofins/DiscoveRx; host or cells: E. coli BL21-derived host (T7 phage display) for most kinases; HEK-293 for the rest
Description: (§1) Kinase binding assays were performed at Eurofins/DiscoveRx using the general KINOMEscan Protocol (Fabian, M. A. et al., “A small molecule-kinase interaction map for clinical kinase inhibitors,” Nat. Biotechnol. 2005, 23(3):329-36). For most assays, kinase-tagged T7 phage strains were prepared in an E. coli host derived from the BL21 strain. E. coli were grown to log-phase and infected with T7 phage and incubated with shaking at 32° C. until lysis. The lysates were centrifuged and filtered to remove cell debris. The remaining kinases were produced in HEK-293 cells and subsequently tagged with DNA for qPCR detection. Streptavidin-coated magnetic beads were treated with biotinylated small molecule ligands for 30 minutes at room temperature to generate affinity resins for kinase assays. The liganded beads were blocked with excess biotin and washed with blocking buffer (SeaBlock (Pierce), 1% BSA, 0.05% Tween 20, 1 mM DTT) to remove unbound ligand and to reduce nonspecific binding. Binding reactions were assembled by combining kinases, liganded affinity beads, and test compounds in 1×binding buffer (20% SeaBlock, 0.17×PBS, 0.05% Tween 20, 6 mM DTT). All reactions were performed in polystyrene 96-well plates in a final volume of 0.135 mL. The assay plates were incubated at room temperature with shaking for 1 hour and the affinity beads were washed with washbuffer (1×PBS, 0.05% Tween 20). The beads were then re-suspended in elution buffer (1× PBS, 0.05% Tween 20, 0.5 μM non-biotinylated affinity ligand) and incubated at room temperature with shaking for 30 minutes. The kinase concentration in the eluates was measured by qPCR. Results for compounds tested in this assay at a given concentration are reported as “% Ctrl”, where lower numbers indicate stronger binding in the matrix.
(§2) (test compound signal-positive control signal)/(negative control signal-positive control signal) X100

kinases [2] = target: T2, kinases (Homo sapiens, UniProt P00533, DEL746-750)
T2 construct: purchased Eurofins/DiscoveRx; host or cells: E. coli BL21-derived host (T7 phage display) for most kinases; HEK-293 for the rest
Description: as §1, §2

kinases [3] = target: T3, kinases (Homo sapiens, UniProt P00519)
T3 construct: purchased Eurofins/DiscoveRx; host or cells: E. coli BL21-derived host (T7 phage display) for most kinases; HEK-293 for the rest
Description: as §1, §2

kinases [4] = target: T4, kinases (Homo sapiens, UniProt P00533, G719C)
T4 construct: purchased Eurofins/DiscoveRx; host or cells: E. coli BL21-derived host (T7 phage display) for most kinases; HEK-293 for the rest
Description: as §1, §2

kinases [5] = target: T5, kinases (Homo sapiens, UniProt P00519, F317I)
T5 construct: purchased Eurofins/DiscoveRx; host or cells: E. coli BL21-derived host (T7 phage display) for most kinases; HEK-293 for the rest
Description: as §1, §2

kinases [6] = target: T6, kinases (Homo sapiens, UniProt P36888, D835V)
T6 construct: purchased Eurofins/DiscoveRx; host or cells: E. coli BL21-derived host (T7 phage display) for most kinases; HEK-293 for the rest
T6 sequence (P36888 27-993 D835V): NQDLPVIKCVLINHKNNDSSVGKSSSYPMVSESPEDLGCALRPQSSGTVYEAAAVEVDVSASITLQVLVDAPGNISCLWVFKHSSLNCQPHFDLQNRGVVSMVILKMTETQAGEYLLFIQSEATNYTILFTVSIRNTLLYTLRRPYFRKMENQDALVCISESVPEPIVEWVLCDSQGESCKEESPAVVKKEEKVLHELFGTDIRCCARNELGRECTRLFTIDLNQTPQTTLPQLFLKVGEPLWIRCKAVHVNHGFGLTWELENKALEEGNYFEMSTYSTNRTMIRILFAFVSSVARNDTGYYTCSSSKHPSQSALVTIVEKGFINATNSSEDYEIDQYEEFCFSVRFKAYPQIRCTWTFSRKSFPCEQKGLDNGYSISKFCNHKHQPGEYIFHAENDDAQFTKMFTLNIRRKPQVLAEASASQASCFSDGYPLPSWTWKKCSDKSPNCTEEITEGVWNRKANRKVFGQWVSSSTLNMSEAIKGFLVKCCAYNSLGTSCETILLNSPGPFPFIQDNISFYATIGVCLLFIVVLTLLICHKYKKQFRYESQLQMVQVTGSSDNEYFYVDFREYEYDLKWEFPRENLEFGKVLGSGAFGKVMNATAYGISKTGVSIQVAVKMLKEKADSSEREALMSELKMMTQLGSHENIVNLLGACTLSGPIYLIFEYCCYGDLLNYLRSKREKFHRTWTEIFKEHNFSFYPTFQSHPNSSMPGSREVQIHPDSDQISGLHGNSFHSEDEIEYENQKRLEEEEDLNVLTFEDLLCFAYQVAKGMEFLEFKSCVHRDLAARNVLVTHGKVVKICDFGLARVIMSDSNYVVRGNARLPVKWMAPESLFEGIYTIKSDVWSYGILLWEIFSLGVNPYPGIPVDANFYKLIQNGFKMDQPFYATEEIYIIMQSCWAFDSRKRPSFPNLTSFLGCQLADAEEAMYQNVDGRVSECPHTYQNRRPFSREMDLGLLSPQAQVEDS
Description: as §1, §2

kinases [7] = target: T7, kinases (Homo sapiens, UniProt P00533, L858R/T790M)
T7 construct: purchased Eurofins/DiscoveRx; host or cells: E. coli BL21-derived host (T7 phage display) for most kinases; HEK-293 for the rest
Description: as §1, §2

kinases [8] = target: T8, kinases (Homo sapiens, UniProt P00519, Q252H)
T8 construct: purchased Eurofins/DiscoveRx; host or cells: E. coli BL21-derived host (T7 phage display) for most kinases; HEK-293 for the rest
Description: as §1, §2

kinases [9] = target: T9, kinases (Homo sapiens, UniProt P10721, D816V)
T9 construct: purchased Eurofins/DiscoveRx; host or cells: E. coli BL21-derived host (T7 phage display) for most kinases; HEK-293 for the rest
T9 sequence (P10721 26-976 D816V): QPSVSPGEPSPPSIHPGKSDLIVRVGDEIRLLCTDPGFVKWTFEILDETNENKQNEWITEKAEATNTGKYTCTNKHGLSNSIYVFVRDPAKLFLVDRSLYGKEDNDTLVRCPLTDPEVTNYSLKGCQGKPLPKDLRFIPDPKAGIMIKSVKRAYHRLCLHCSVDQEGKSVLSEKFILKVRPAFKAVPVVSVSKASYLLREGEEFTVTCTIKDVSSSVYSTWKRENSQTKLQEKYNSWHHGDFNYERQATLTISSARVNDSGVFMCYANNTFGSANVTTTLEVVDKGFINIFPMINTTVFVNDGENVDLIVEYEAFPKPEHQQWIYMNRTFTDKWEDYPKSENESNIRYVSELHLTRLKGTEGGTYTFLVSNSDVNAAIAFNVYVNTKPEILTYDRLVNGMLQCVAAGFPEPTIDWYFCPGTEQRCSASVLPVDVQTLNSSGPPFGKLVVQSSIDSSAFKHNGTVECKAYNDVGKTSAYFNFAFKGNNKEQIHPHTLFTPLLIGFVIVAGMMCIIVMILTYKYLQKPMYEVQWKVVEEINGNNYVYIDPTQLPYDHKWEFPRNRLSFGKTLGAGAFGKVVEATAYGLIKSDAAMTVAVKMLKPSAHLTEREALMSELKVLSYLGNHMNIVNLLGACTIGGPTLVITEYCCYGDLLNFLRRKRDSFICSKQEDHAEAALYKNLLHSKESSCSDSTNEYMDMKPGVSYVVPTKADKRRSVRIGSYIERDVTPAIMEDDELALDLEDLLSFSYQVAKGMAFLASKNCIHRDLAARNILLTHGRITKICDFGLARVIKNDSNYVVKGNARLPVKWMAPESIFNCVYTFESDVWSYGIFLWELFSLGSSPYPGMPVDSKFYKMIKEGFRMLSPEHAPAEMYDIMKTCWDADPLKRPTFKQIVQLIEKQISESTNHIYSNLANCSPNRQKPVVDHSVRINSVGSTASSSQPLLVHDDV
Description: as §1, §2

kinases [10] = target: T10, kinases (Homo sapiens, UniProt P07949)
T10 construct: purchased Eurofins/DiscoveRx; host or cells: E. coli BL21-derived host (T7 phage display) for most kinases; HEK-293 for the rest
T10 sequence (P07949 29-1114): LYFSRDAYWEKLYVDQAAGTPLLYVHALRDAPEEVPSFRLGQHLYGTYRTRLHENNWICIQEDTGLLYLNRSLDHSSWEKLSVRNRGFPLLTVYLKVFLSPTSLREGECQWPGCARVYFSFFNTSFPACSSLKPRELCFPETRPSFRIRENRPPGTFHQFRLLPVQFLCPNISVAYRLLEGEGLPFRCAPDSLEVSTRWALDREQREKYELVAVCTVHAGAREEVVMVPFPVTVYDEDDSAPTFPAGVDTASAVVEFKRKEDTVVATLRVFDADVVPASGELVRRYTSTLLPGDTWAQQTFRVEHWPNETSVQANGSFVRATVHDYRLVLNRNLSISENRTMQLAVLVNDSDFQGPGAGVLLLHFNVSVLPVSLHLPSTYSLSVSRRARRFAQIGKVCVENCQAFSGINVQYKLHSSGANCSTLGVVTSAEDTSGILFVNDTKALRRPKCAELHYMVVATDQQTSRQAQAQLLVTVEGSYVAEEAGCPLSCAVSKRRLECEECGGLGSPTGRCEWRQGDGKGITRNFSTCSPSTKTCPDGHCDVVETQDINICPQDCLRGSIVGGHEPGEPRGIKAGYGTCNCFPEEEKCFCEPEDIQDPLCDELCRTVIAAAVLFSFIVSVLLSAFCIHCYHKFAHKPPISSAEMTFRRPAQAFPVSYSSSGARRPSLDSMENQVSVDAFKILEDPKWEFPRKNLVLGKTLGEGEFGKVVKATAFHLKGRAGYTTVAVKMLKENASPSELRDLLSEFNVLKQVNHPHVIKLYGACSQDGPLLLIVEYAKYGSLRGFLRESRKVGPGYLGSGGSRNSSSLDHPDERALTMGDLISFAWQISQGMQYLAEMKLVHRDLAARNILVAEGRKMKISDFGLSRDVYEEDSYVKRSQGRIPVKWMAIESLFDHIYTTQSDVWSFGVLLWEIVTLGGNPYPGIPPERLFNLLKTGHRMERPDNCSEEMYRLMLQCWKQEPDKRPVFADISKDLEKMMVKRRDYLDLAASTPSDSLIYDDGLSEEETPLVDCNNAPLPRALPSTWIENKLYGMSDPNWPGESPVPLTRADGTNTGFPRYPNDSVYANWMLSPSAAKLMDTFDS
Description: as §1, §2

kinases [11] = target: T11, kinases (Homo sapiens, UniProt P00533, L858R)
T11 construct: purchased Eurofins/DiscoveRx; host or cells: E. coli BL21-derived host (T7 phage display) for most kinases; HEK-293 for the rest
Description: as §1, §2

[12] = 1 μM; ABL1(F317I)-nonphosphorylated
[13] = 1 μM; ABL1(F317I)-phosphorylated
[14] = 1 μM; ABL1(Q252H)-nonphosphorylated
[15] = 1 μM; ABL1(Q252H)-phosphorylated

T1 sequence (P10721 26-976 V559D/V654A): as the sequence (P10721 26-976 D816V) above, with V534D, V629A, V791D counted along it

Row | % Ctrl, KIT(V559D, V654A) (kinases [1]; 1 μM; KIT(V559D, V654A)) [% Ctrl] | % Ctrl, EGFR(E746-A750del) (kinases [2]; 1 μM; EGFR(E746-A750del)) [% Ctrl] | % Ctrl, ABL1-nonphosphorylated (kinases [3]; 1 μM; ABL1-nonphosphorylated) [% Ctrl] | % Ctrl, ABL1-phosphorylated (kinases [3]; 1 μM; ABL1-phosphorylated) [% Ctrl] | % Ctrl, EGFR(G719C) (kinases [4]; 1 μM; EGFR(G719C)) [% Ctrl] | % Ctrl, ABL1(F317I)-nonphosphorylated (kinases [5]; [12]) [% Ctrl] | % Ctrl, ABL1(F317I)-phosphorylated (kinases [5]; [13]) [% Ctrl] | % Ctrl, FLT3(D835V) (kinases [6]; 1 μM; FLT3(D835V)) [% Ctrl] | % Ctrl, EGFR(L858R, T790M) (kinases [7]; 1 μM; EGFR(L858R, T790M)) [% Ctrl] | % Ctrl, ABL1(Q252H)-nonphosphorylated (kinases [8]; [14]) [% Ctrl] | % Ctrl, ABL1(Q252H)-phosphorylated (kinases [8]; [15]) [% Ctrl] | % Ctrl, KIT(D816V) (kinases [9]; 1 μM; KIT(D816V)) [% Ctrl] | % Ctrl, RET (kinases [10]; 1 μM; RET) [% Ctrl] | % Ctrl, EGFR(L858R) (kinases [11]; 1 μM; EGFR(L858R)) [% Ctrl] | Compound | also measured
1 | 100 | 69 | 53 | 90 | 92 | 68 | 94 | 27 | 98 | 55 | 97 | 96 | 85 | 97 | Cc1cc2c([nH]1)/C=C1\C(=O)Nc3ccc(cc31)-c1ccnn1CCNCCNC2=O [Ex. 43, [19a(20)Z]-2-methyl-5,6,7,8,9,10-hexahydro-15,17-(ethanediylidene)pyrazolo[1,5-g]dipyrrolo[3,4-k:2′,3′-n][1,4,7]triazacyclohexadecine-4,19(1H,18H)-dione] | 
2 |  |  |  |  |  |  |  |  |  |  |  |  |  |  | Cc1cc2c([nH]1)/C=C1\C(=O)Nc3cc(Cl)c(cc31)OCCO[C@@H](C(=O)N1CCN(C)CC1)CN(C)C2=O [Ex. 138, [7R,16a(17)Z]-19-chloro-2,5-dimethyl-7-(4-methylpipearazine-1-carbonyl)-6,7,9,10-tetrahydro-1H-12,14-(ethanediylidene)dipyrrolo[3,2-i:3′,4′-l][1,4,7]dioxazacyclopentadecine-4,16(5H,15H)-dione] | % Ctrl, KIT(V559D, V654A) (kinases [1]; target KIT(V559D, V654A); 1 μM): 62 % Ctrl; % Ctrl, EGFR(E746-A750del) (kinases [2]; target EGFR(E746-A750del); 1 μM): 78 % Ctrl; % Ctrl, ABL1-nonphosphorylated (kinases [3]; target ABL1-nonphosphorylated; 1 μM): 79 % Ctrl; % Ctrl, ABL1-phosphorylated (kinases [3]; target ABL1-phosphorylated; 1 μM): 100 % Ctrl; % Ctrl, EGFR(G719C) (kinases [4]; target EGFR(G719C); 1 μM): 100 % Ctrl; % Ctrl, ABL1(F317I)-nonphosphorylated (kinases [5]; target ABL1(F317I)-nonphosphorylated; 1 μM): 86 % Ctrl; % Ctrl, ABL1(F317I)-phosphorylated (kinases [5]; target ABL1(F317I)-phosphorylated; 1 μM): 100 % Ctrl; % Ctrl, FLT3(D835V) (kinases [6]; target FLT3(D835V); 1 μM): 18 % Ctrl; % Ctrl, EGFR(L858R, T790M) (kinases [7]; target EGFR(L858R, T790M); 1 μM): 82 % Ctrl; % Ctrl, ABL1(Q252H)-nonphosphorylated (kinases [8]; target ABL1(Q252H)-nonphosphorylated; 1 μM): 100 % Ctrl; % Ctrl, ABL1(Q252H)-phosphorylated (kinases [8]; target ABL1(Q252H)-phosphorylated; 1 μM): 98 % Ctrl; % Ctrl, KIT(D816V) (kinases [9]; target KIT(D816V); 1 μM): 100 % Ctrl; % Ctrl, RET (kinases [10]; target RET; 1 μM): 63 % Ctrl; % Ctrl, EGFR(L858R) (kinases [11]; target EGFR(L858R); 1 μM): 78 % Ctrl
3 | 12 | 11 | 0 | 0 | 93 | 0 | 3.5 | 0 | 35 | 0 | 0.2 | 1.2 | 0 | 56 | Cc1cc2c([nH]1)/C=C1\C(=O)Nc3cc(Cl)c(cc31)OCCOCCN(C)C2=O [Ex. 131, [16a(17)Z]-19-chloro-2,5-dimethyl-6,7,9,10-tetrahydro-1H-12,14-(ethanediylidene)dipyrrolo[3,2-i:3′,4′-l][1,4,7]dioxazacyclopentadecine-4,16(5H,15H)-dione] | 
4 |  |  |  |  |  |  |  |  |  |  |  |  |  |  | Cc1cc2c([nH]1)/C=C1\C(=O)Nc3ccc(cc31)-c1cnn(C)c1OCCCN(C)C2=O [Ex. 166, [3a(4)Z]-9,14-dimethyl-9,10,11,12-tetrahydro-14H-1,17-(ethanediylidene)pyrazolo[4,3-n]dipyrrolo[3,2-g:3′,4′-j][1,5]oxazacyclopentadecine-3,8(2H,5H)-dione] | % Ctrl, KIT(V559D, V654A) (kinases [1]; 1 μM; target KIT(V559D, V654A)): 43 % Ctrl; % Ctrl, EGFR(E746-A750del) (kinases [2]; 1 μM; target EGFR(E746-A750del)): 84 % Ctrl; % Ctrl, ABL1-nonphosphorylated (kinases [3]; 1 μM; target ABL1-nonphosphorylated): 4.1 % Ctrl; % Ctrl, ABL1-phosphorylated (kinases [3]; 1 μM; target ABL1-phosphorylated): 3.6 % Ctrl; % Ctrl, EGFR(G719C) (kinases [4]; 1 μM; target EGFR(G719C)): 98 % Ctrl; % Ctrl, ABL1(F317I)-nonphosphorylated (kinases [5]; 1 μM; target ABL1(F317I)-nonphosphorylated): 80 % Ctrl; % Ctrl, ABL1(F317I)-phosphorylated (kinases [5]; 1 μM; target ABL1(F317I)-phosphorylated): 31 % Ctrl; % Ctrl, FLT3(D835V) (kinases [6]; 1 μM; target FLT3(D835V)): 1.8 % Ctrl; % Ctrl, EGFR(L858R, T790M) (kinases [7]; 1 μM; target EGFR(L858R, T790M)): 8.1 % Ctrl; % Ctrl, ABL1(Q252H)-nonphosphorylated (kinases [8]; 1 μM; target ABL1(Q252H)-nonphosphorylated): 2.6 % Ctrl; % Ctrl, ABL1(Q252H)-phosphorylated (kinases [8]; 1 μM; target ABL1(Q252H)-phosphorylated): 3.8 % Ctrl; % Ctrl, KIT(D816V) (kinases [9]; 1 μM; target KIT(D816V)): 2.8 % Ctrl; % Ctrl, RET (kinases [10]; 1 μM; target RET): 7.1 % Ctrl; % Ctrl, EGFR(L858R) (kinases [11]; 1 μM; target EGFR(L858R)): 85 % Ctrl
5 | 6.7 | 20 | 0 | 0 | 8 | 0 | 0.75 | 0.25 | 1.2 | 0 | 0.05 | 0.5 | 0 | 48 | Cc1cc2c([nH]1)/C=C1\C(=O)Nc3ccc(cc31)-c1cnn(C)c1CNCCN(C)C2=O [Ex. 125, [3a(4)Z]-6,9,14-trimethyl-9,10,11,12,13,14-hexahydro-1,17-(ethanediylidene)pyrazolo[4,3-m]dipyrrolo[3,2-f:3′,4′-i][1,4]diazacyclopentadecine-3,8(2H,5H)-dione] | 
